Measured values as given in patent US9174980B2, “Heterocyclic compounds as inhibitors of leukotriene production” (Boehringer Ingelheim International GmbH, priority 2012, dated 2015).

Tests used:
[1] = molecular target: T1, recombinant human FLAP protein (Homo sapiens, UniProt P20292); assay: FLAP binding assay (Scintillation Proximity Assay, displacement of [125I]L-691,831); conditions: read-out: Human FLAP SPA Binding (IC50 nM)
T1 construct: made in house; host or cells: Sf9 insect cells (membrane fraction, 100,000 x g pellet)
T1 sequence (P20292 1-161): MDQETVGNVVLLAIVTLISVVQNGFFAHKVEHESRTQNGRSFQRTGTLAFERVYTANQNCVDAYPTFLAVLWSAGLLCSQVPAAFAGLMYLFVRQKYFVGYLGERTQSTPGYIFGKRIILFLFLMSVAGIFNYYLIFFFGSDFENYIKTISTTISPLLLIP
How it was run: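 Membranes from sf9 cells expressing recombinant human FLAP (5 μg/well) on WGA SPA beads were incubated with compound and 0.08 nM [125I]L-691,831 in Tris pH 7.5 binding buffer, shaken 2 h. Displacement read by scintillation proximity; non-specific binding set with 10 μM unlabelled L-691,831.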

[2] = system: synthesis of LTB4 in human whole blood; assay: Human whole blood assay (calcimycin-stimulated LTB4 synthesis); format: cell-based; conditions: Homo sapiens; read-out: Human Whole Blood LTB4 Assay for FLAP (IC50 nM)
How it was run: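 Readout: plasma LTB4 by antibody-based HTRF. Compound added to heparinized human whole blood, 15 min 37° C; calcimycin 20 μM final (PBS pH 7.4), 30 min 37° C; spun 1500×g 5 min, plasma taken.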

Structure (SMILES)	IC50 [1] [nM]	IC50 [2] [nM]
COC(=O)c1cc(-c2cnn(C)c2)c(C2(c3ccc(-c4cnc(N)nc4)cc3)CCC2)n1C [Example 182, methyl 5-{1-[4-(2-aminopyrimidin-5-yl)phenyl]cyclobutyl}-1-methyl-4-(1-methyl-1H-pyrazol-4-yl)-1H-pyrrole-2-carboxylate]	38	1400
CN(C)C(=O)Cn1cc(-c2cc(C(C)(c3ccc(-c4cnc(N)nc4)cc3)C3CC3)no2)cn1 (stereo not shown) [Example 183, 2-[4-(3-{1-[4-(2-aminopyrimidin-5-yl)phenyl]-1-cyclopropylethyl}-1,2-oxazol-5-yl)-1H-pyrazol-1-yl]-N,N-dimethylacetamide]	9	200
CC(C)(O)Cn1cc(-c2cc(C(C)(c3ccc(-c4cnc(N)nc4)cc3)C3CC3)no2)cn1 (stereo not shown) [Example 184, 1-[4-(3-{1-[4-(2-aminopyrimidin-5-yl)phenyl]-1-cyclopropylethyl}-1,2-oxazol-5-yl)-1H-pyrazol-1-yl]-2-methylpropan-2-ol]	8.4	97
Cn1cc(-c2coc([C@@](C)(c3ccc(-c4cnc(N)nc4)cc3)C3CC3)n2)cn1 [Example 185, 5-[4-[(1R)-1-cyclopropyl-1-[4-(1-methylpyrazol-4-yl)oxazol-2-yl]ethyl]phenyl]pyrimidin-2-amine]	3.3	54
Cn1cc(-c2coc([C@](C)(c3ccc(-c4cnc(N)nc4)cc3)C3CC3)n2)cn1 [Example 186, 5-[4-[(1S)-1-cyclopropyl-1-[4-(1-methylpyrazol-4-yl)oxazol-2-yl]ethyl]phenyl]pyrimidin-2-amine]	87	2000
CN(C)CCn1cc(-c2cc(C(C)(c3ccc(-c4cnc(N)nc4)cc3)C3CC3)no2)cn1 (stereo not shown) [Example 187, 5-{4-[1-cyclopropyl-1-(5-{1-[2-(dimethylamino)ethyl]-1H-pyrazol-4-yl}-1,2-oxazol-3-yl)ethyl]phenyl}pyrimidin-2-amine]	9.9	67
Cn1cc(-c2c(C3(c4ccc(-c5cnc(N)nc5)cc4)CCC3)c3ccccc3n2C(=O)OC(C)(C)C)cn1 [Example 188, tert-butyl 3-{1-[4-(2-aminopyrimidin-5-yl)phenyl]cyclobutyl}-2-(1-methyl-1H-pyrazol-4-yl)-1H-indole-1-carboxylate]	270	> 5000
Cn1cc(-c2[nH]c3ccccc3c2C2(c3ccc(-c4cnc(N)nc4)cc3)CCC2)cn1 [Example 189]	5.3	280
Cn1cc(-c2cnc(C3(c4ccc(-c5cnc(N)nc5)cc4)CCC3)s2)cn1 [Example 190, 5-(4-{1-[5-(1-methyl-1H-pyrazol-4-yl)-1,3-thiazol-2-yl]cyclobutyl}phenyl)pyrimidin-2-amine]	4.9	80
CC(C)[C@](C)(c1ccc(-c2cnc(N)nc2)nc1)c1cc(-c2cnn(C)c2)on1 [Example 191, 5-(5-{(2R)-3-methyl-2-[5-(1-methyl-1H-pyrazol-4-yl)-1,2-oxazol-3-yl]butan-2-yl}pyridin-2-yl)pyrimidin-2-amine]	7.5	56
CC(C)[C@@](C)(c1ccc(-c2cnc(N)nc2)nc1)c1cc(-c2cnn(C)c2)on1 [Example 192, 5-(5-{(2S)-3-methyl-2-[5-(1-methyl-1H-pyrazol-4-yl)-1,2-oxazol-3-yl]butan-2-yl}pyridin-2-yl)pyrimidin-2-amine]	210	1900
COCCNC(=O)c1[nH]c2ccccc2c1C1(c2ccc(-c3cnc(N)nc3)cc2)CCC1 [Example 193]	7.9	450
CN(C)C(=O)Cn1cc(-c2coc(C(C)(c3ccc(-c4cnc(N)nc4)cc3)C3CC3)n2)cn1 (stereo not shown) [Example 194, 2-[4-(2-{1-[4-(2-aminopyrimidin-5-yl)phenyl]-1-cyclopropylethyl}-1,3-oxazol-4-yl)-1H-pyrazol-1-yl]-N-dimethylacetamide]	40	560
CN(C)C(=O)Cn1cc(-c2coc([C@@](C)(c3ccc(-c4cnc(N)nc4)cc3)C3CC3)n2)cn1 [Example 195, 2-[4-(2-{(1R)-1-[4-(2-aminopyrimidin-5-yl)phenyl]-1-cyclopropylethyl}-1,3-oxazol-4-yl)-1H-pyrazol-1-yl]-N,N-dimethylacetamide]	18	280
CN(C)C(=O)Cn1cc(-c2coc([C@](C)(c3ccc(-c4cnc(N)nc4)cc3)C3CC3)n2)cn1 [Example 196, 2-[4-(2-{(1S)-1-[4-(2-aminopyrimidin-5-yl)phenyl]-1-cyclopropylethyl}-1,3-oxazol-4-yl)-1H-pyrazol-1-yl]-N,N-dimethylacetamide]	380	2000
CN(C)C(=O)Cn1cc(-c2cc([C@@](C)(c3ccc(-c4cnc(N)nc4)cc3)C3CC3)no2)cn1 [Example 197, 2-[4-(3-{(1R)-1-[4-(2-aminopyrimidin-5-yl)phenyl]-1-cyclopropylethyl}-1,2-oxazol-5-yl)-1H-pyrazol-1-yl]-N,N-dimethylacetamide]	5.3	93
CN(C)C(=O)Cn1cc(-c2cc([C@](C)(c3ccc(-c4cnc(N)nc4)cc3)C3CC3)no2)cn1 [Example 198, 2-[4-(3-{(1S)-1-[4-(2-aminopyrimidin-5-yl)phenyl]-1-cyclopropylethyl}-1,2-oxazol-5-yl)-1H-pyrazol-1-yl]-N,N-dimethylacetamide]	350	1600
Cn1cc(-c2cc(C(C)(c3ccc(-c4cnc(N)nc4)nc3)C3CC3)no2)cn1 (stereo not shown) [Example 199, 5-(5-{1-Cyclopropyl-1-[5-(1-methyl-1H-pyrazol-4-yl)-isoxazol-3-yl]-ethyl}-pyridin-2-yl)-pyrimidin-2-ylamine]	230	590
Cn1cc(-c2cc([C@@](C)(c3ccc(-c4cnc(N)nc4)nc3)C3CC3)no2)cn1 [Example 200]	140	450
Cn1cc(-c2cc([C@](C)(c3ccc(-c4cnc(N)nc4)nc3)C3CC3)no2)cn1 [Example 201, 5-(5-{(S)-1-Cyclopropyl-1-[5-(1-methyl-1H-pyrazol-4-yl)-isoxazol-3-yl]-ethyl}-pyridin-2-yl)-pyrimidin-2-ylamine]	> 2000	3500
CC(C)(O)Cn1cc(-c2coc(C(C)(c3ccc(-c4cnc(N)nc4)cc3)C3CC3)n2)cn1 (stereo not shown) [Example 202, 1-[4-(2-{1-[4-(2-Amino-pyrimidin-5-yl)-phenyl]-1-cyclopropyl-ethyl}-oxazol-4-yl)-pyrazol-1-yl]-2-methyl-propan-2-ol]	69	230
CC(C)(O)Cn1cc(-c2coc([C@@](C)(c3ccc(-c4cnc(N)nc4)cc3)C3CC3)n2)cn1 [Example 203, 1-[4-(2-{(R)-1-[4-(2-Amino-pyrimidin-5-yl)-phenyl]-1-cyclopropyl-ethyl}-oxazol-4-yl)-pyrazol-1-yl]-2-methyl-propan-2-ol]	36	190
CC(C)(O)Cn1cc(-c2coc([C@](C)(c3ccc(-c4cnc(N)nc4)cc3)C3CC3)n2)cn1 [Example 204, 1-[4-(2-{(S)-1-[4-(2-Amino-pyrimidin-5-yl)-phenyl]-1-cyclopropyl-ethyl}-oxazol-4-yl)-pyrazol-1-yl]-2-methyl-propan-2-ol]	560	1500
CN(C)C(=O)Cn1cc(-c2coc(C(C)(c3ccc(-c4cnc(N)nc4)nc3)C3CC3)n2)cn1 (stereo not shown) [Example 205, 2-[4-(2-{1-[6-(2-Amino-pyrimidin-5-yl)-pyridin-3-yl]-1-cyclopropyl-ethyl}-oxazol-4-yl)-pyrazol-1-yl]-N,N-dimethyl-acetamide]	1500	1600
Cn1cc(-c2coc(C(C)(c3ccc(-c4cnc(N)nc4)nc3)C3CC3)n2)cn1 (stereo not shown) [Example 206, 5-(5-{1-Cyclopropyl-1-[4-(1-methyl-1H-pyrazol-4-yl)-oxazol-2-yl]-ethyl}-pyridin-2-yl)-pyrimidin-2-ylamine]	180	930
Cn1cc(-c2coc([C@@](C)(c3ccc(-c4cnc(N)nc4)nc3)C3CC3)n2)cn1 [Example 207, 5-(5-{(R)-1-Cyclopropyl-1-[4-(1-methyl-1H-pyrazol-4-yl)-oxazol-2-yl]-ethyl}-pyridin-2-yl)-pyrimidin-2-ylamine]	110	220
Cn1cc(-c2coc([C@](C)(c3ccc(-c4cnc(N)nc4)nc3)C3CC3)n2)cn1 [Example 208, 5-(5-{(S)-1-Cyclopropyl-1-[4-(1-methyl-1H-pyrazol-4-yl)-oxazol-2-yl]-ethyl}-pyridin-2-yl)-pyrimidin-2-ylamine]	> 2000	1300
CC(C)(O)Cn1cc(-c2coc(C(C)(c3ccc(-c4cnc(N)nc4)nc3)C3CC3)n2)cn1 (stereo not shown) [Example 209, 1-[4-(2-{1-[6-(2-Amino-pyrimidin-5-yl)-pyridin-3-yl]-1-cyclopropyl-ethyl}-oxazol-4-yl)-pyrazol-1-yl]-2-methyl-propan-2-ol]	300	560
CC(C)(O)Cn1cc(-c2coc([C@@](C)(c3ccc(-c4cnc(N)nc4)nc3)C3CC3)n2)cn1 [Example 210, 1-[4-(2-{(R)-1-[6-(2-Amino-pyrimidin-5-yl)-pyridin-3-yl]-1-cyclopropyl-ethyl}-oxazol-4-yl)-pyrazol-1-yl]-2-methyl-propan-2-ol]	180	530
